# Source: ChEMBL document CHEMBL1201862, “PubChem BioAssay data set” (2004)
#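 Five concentrations, 48 hours, 96-well plates. GI50 is the concentration that inhibits growth by half.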 Calls of active or inactive are those of the source. No stated cut-off is given here; in the data, active = GI50 up to about 1.1 µM and inactive = higher.
# Columns and labels:
# Experiment in all cases: NCI anticancer screen, dose series, 48 h
# [1] = tested on: HCT-15
# [2] = tested on: HOP-18
# [3] = tested on: SK-MEL-2
# [4] = tested on: UACC-257
# [5] = tested on: SNB-75
# [6] = tested on: KM12
# [7] = tested on: SK-MEL-28
# [8] = tested on: CCRF-CEM
# [9] = tested on: HL-60
# [10] = tested on: SF-295
# [11] = tested on: HOP-92
# [12] = tested on: MOLT-4
# [13] = tested on: HCT-116
# [14] = tested on: HCC 2998
# [15] = tested on: TK-10
# [16] = tested on: A498
# [17] = tested on: CAKI-1
# [18] = tested on: NCI-H460
# [19] = tested on: SF-268
# [20] = tested on: RPMI-8226
# [21] = tested on: SR
# [22] = tested on: KM-20L2
# [23] = tested on: OVCAR-3
# [24] = tested on: NCI-H522
# [25] = tested on: DLD-1
# [26] = tested on: Malme-3M
# [27] = tested on: K562
# [28] = tested on: NCI-H23
# [29] = tested on: HOP-62
# [30] = tested on: SK-MEL-5
# [31] = tested on: NCI-H226
# [32] = tested on: XF498
# [33] = tested on: OVCAR-5
# [34] = tested on: SW-620
# [35] = tested on: EKVX
# [36] = tested on: DMS-114
# [37] = tested on: 786-0
# [38] = tested on: LOX IMVI
# [39] = tested on: SNB-19
# [40] = tested on: A549
# [41] = tested on: LXFL 529
# [42] = tested on: ACHN
# [43] = tested on: M19-MEL
# [44] = tested on: COLO 205
# [45] = tested on: DMS-273
# [46] = tested on: UACC-62
# [47] = tested on: HT-29
# [48] = tested on: OVCAR-4
# [49] = tested on: SF-539
# [50] = tested on: SK-OV-3
# [51] = tested on: M14
# [52] = tested on: U-251
# [53] = tested on: OVCAR-8
# [54] = tested on: SN12C
# [55] = tested on: IGROV-1
# [56] = tested on: SNB-78
# [57] = tested on: UO-31
# [58] = tested on: MDA-MB-231
# [59] = tested on: RXF 393
# [60] = tested on: T47D
# [61] = tested on: Hs-578T
# [62] = tested on: MDA-N
# [63] = tested on: DU-145
# [64] = tested on: PC-3
# [65] = tested on: MCF7
# [66] = tested on: NCI/ADR-RES
structure (smiles),measurement,setting,value
CN(C)/N=N/c1c[nH]nc1C(N)=O,GI50,[1],64.1 µM
same,GI50,[2],> 100 µM (inactive)
same,GI50,[3],> 100 µM (inactive)
same,GI50,[4],> 100 µM (inactive)
same,GI50,[5],> 100 µM (inactive)
same,GI50,[6],> 100 µM (inactive)
same,GI50,[7],> 100 µM (inactive)
same,GI50,[8],> 100 µM (inactive)
same,GI50,[9],> 100 µM (inactive)
same,GI50,[10],> 100 µM (inactive)
same,GI50,[11],> 100 µM (inactive)
same,GI50,[12],> 100 µM (inactive)
same,GI50,[13],> 100 µM (inactive)
same,GI50,[14],> 100 µM (inactive)
same,GI50,[15],> 100 µM (inactive)
same,GI50,[16],> 100 µM (inactive)
same,GI50,[17],> 100 µM (inactive)
same,GI50,[18],> 100 µM (inactive)
same,GI50,[19],> 100 µM (inactive)
same,GI50,[20],> 100 µM (inactive)
same,GI50,[21],31.3 µM (inactive)
same,GI50,[22],> 100 µM (inactive)
same,GI50,[23],> 100 µM (inactive)
same,GI50,[24],42.9 µM (inactive)
same,GI50,[25],> 100 µM (inactive)
same,GI50,[26],> 100 µM (inactive)
same,GI50,[27],54.8 µM (inactive)
same,GI50,[28],> 100 µM (inactive)
same,GI50,[29],> 100 µM (inactive)
same,GI50,[30],> 100 µM (inactive)
same,GI50,[31],> 100 µM (inactive)
same,GI50,[32],> 100 µM (inactive)
same,GI50,[33],> 100 µM (inactive)
same,GI50,[34],> 100 µM (inactive)
same,GI50,[35],> 100 µM (inactive)
same,GI50,[36],> 100 µM (inactive)
same,GI50,[37],> 100 µM (inactive)
same,GI50,[38],53.1 µM (inactive)
same,GI50,[39],> 100 µM (inactive)
same,GI50,[40],> 100 µM (inactive)
same,GI50,[41],> 100 µM (inactive)
same,GI50,[42],76.7 µM (inactive)
same,GI50,[43],> 100 µM (inactive)
same,GI50,[44],> 100 µM (inactive)
same,GI50,[45],> 100 µM (inactive)
same,GI50,[46],16.2 µM (inactive)
same,GI50,[47],> 100 µM (inactive)
same,GI50,[48],> 100 µM (inactive)
same,GI50,[49],> 100 µM (inactive)
same,GI50,[50],> 100 µM (inactive)
same,GI50,[51],> 100 µM (inactive)
same,GI50,[52],> 100 µM (inactive)
same,GI50,[53],> 100 µM (inactive)
same,GI50,[54],> 100 µM (inactive)
same,GI50,[55],> 100 µM (inactive)
CCOC(OCC)C(CC)[Se]c1ccccc1[N+](=O)[O-] (configuration not stated),GI50,[1],1.57 µM
same,GI50,[2],11.8 µM (inactive)
same,GI50,[3],6.34 µM (inactive)
same,GI50,[4],8.83 µM (inactive)
same,GI50,[5],3.45 µM (inactive)
same,GI50,[6],3.06 µM (inactive)
same,GI50,[56],7.76 µM (inactive)
same,GI50,[7],10.5 µM (inactive)
same,GI50,[8],2 µM (inactive)
same,GI50,[9],0.418 µM (active)
same,GI50,[10],2.32 µM (inactive)
same,GI50,[11],> 22.2 µM (inactive)
same,GI50,[12],2.9 µM (inactive)
same,GI50,[13],3.6 µM (inactive)
same,GI50,[14],1.56 µM (inactive)
same,GI50,[15],8.09 µM (inactive)
same,GI50,[16],2.17 µM (inactive)
same,GI50,[17],2.75 µM (inactive)
same,GI50,[18],2.81 µM (inactive)
same,GI50,[19],8.04 µM (inactive)
same,GI50,[20],3.44 µM (inactive)
same,GI50,[21],0.593 µM (active)
same,GI50,[57],7.43 µM (inactive)
same,GI50,[22],1.96 µM (inactive)
same,GI50,[58],9.2 µM (inactive)
same,GI50,[23],2.45 µM (inactive)
same,GI50,[24],1.72 µM (inactive)
same,GI50,[25],3.1 µM (inactive)
same,GI50,[26],7.28 µM (inactive)
same,GI50,[27],1.93 µM (inactive)
same,GI50,[28],3.03 µM (inactive)
same,GI50,[29],3.08 µM (inactive)
same,GI50,[30],2.42 µM (inactive)
same,GI50,[31],7.96 µM (inactive)
same,GI50,[32],2.92 µM (inactive)
same,GI50,[33],6.35 µM (inactive)
same,GI50,[34],2.5 µM (inactive)
same,GI50,[59],1.8 µM (inactive)
same,GI50,[35],5.7 µM (inactive)
same,GI50,[60],9.06 µM (inactive)
same,GI50,[61],3.18 µM (inactive)
same,GI50,[37],3.41 µM (inactive)
same,GI50,[38],5.33 µM (inactive)
same,GI50,[39],3.75 µM (inactive)
same,GI50,[40],4.79 µM (inactive)
same,GI50,[41],4.39 µM (inactive)
same,GI50,[42],11.3 µM (inactive)
same,GI50,[62],0.352 µM (active)
same,GI50,[43],4.42 µM (inactive)
same,GI50,[44],2.48 µM (inactive)
same,GI50,[45],1.01 µM (active)
same,GI50,[46],2.44 µM (inactive)
same,GI50,[47],2.39 µM (inactive)
same,GI50,[48],> 55.5 µM (inactive)
same,GI50,[63],3.95 µM (inactive)
same,GI50,[49],2.02 µM (inactive)
same,GI50,[50],2.31 µM (inactive)
same,GI50,[51],1.63 µM (inactive)
same,GI50,[52],2.51 µM (inactive)
same,GI50,[53],4.48 µM (inactive)
same,GI50,[54],7.94 µM (inactive)
same,GI50,[55],3.48 µM (inactive)
same,GI50,[64],3.27 µM (inactive)
CC(=O)Oc1ccc(C2COc3cc(OC(C)=O)c(OC(C)=O)cc3C2)cc1 (configuration not stated),GI50,[1],18.5 µM
same,GI50,[2],12.8 µM (inactive)
same,GI50,[3],14.7 µM (inactive)
same,GI50,[4],17.7 µM (inactive)
same,GI50,[5],6.07 µM (inactive)
same,GI50,[6],25 µM (inactive)
same,GI50,[56],24.3 µM (inactive)
same,GI50,[7],16.3 µM (inactive)
same,GI50,[8],7.57 µM (inactive)
same,GI50,[9],4.11 µM (inactive)
same,GI50,[10],22.2 µM (inactive)
same,GI50,[11],3.88 µM (inactive)
same,GI50,[12],18.3 µM (inactive)
same,GI50,[13],17.4 µM (inactive)
same,GI50,[14],21.3 µM (inactive)
same,GI50,[16],9.04 µM (inactive)
same,GI50,[17],16.3 µM (inactive)
same,GI50,[18],17.9 µM (inactive)
same,GI50,[19],13.7 µM (inactive)
same,GI50,[20],14.9 µM (inactive)
same,GI50,[57],22.3 µM (inactive)
same,GI50,[22],37.2 µM (inactive)
same,GI50,[23],13.7 µM (inactive)
same,GI50,[24],2.8 µM (inactive)
same,GI50,[25],17.9 µM (inactive)
same,GI50,[26],16.5 µM (inactive)
same,GI50,[27],16.3 µM (inactive)
same,GI50,[28],16 µM (inactive)
same,GI50,[29],25.4 µM (inactive)
same,GI50,[30],2.95 µM (inactive)
same,GI50,[31],20.6 µM (inactive)
same,GI50,[32],12.2 µM (inactive)
same,GI50,[33],56.9 µM (inactive)
same,GI50,[34],17.4 µM (inactive)
same,GI50,[59],13.6 µM (inactive)
same,GI50,[35],17.3 µM (inactive)
same,GI50,[36],4.44 µM (inactive)
same,GI50,[38],> 37.1 µM (inactive)
same,GI50,[39],32.2 µM (inactive)
same,GI50,[40],22.3 µM (inactive)
same,GI50,[65],19 µM (inactive)
same,GI50,[43],12.9 µM (inactive)
same,GI50,[44],17.9 µM (inactive)
same,GI50,[45],21.9 µM (inactive)
same,GI50,[46],10.1 µM (inactive)
same,GI50,[47],49.3 µM (inactive)
same,GI50,[48],14.4 µM (inactive)
same,GI50,[49],11.7 µM (inactive)
same,GI50,[50],20.7 µM (inactive)
same,GI50,[52],13.2 µM (inactive)
same,GI50,[53],18 µM (inactive)
same,GI50,[54],22.4 µM (inactive)
same,GI50,[55],12.8 µM (inactive)
same,GI50,[66],20.8 µM (inactive)
